Data on two molecules can be found in patent US20230035606A1, “AN ACCURATE AND COMPREHENSIVE CARDIAC TROPONIN I ASSAY ENABLED BY NANOTECHNOLOGY AND PROTEOMICS” (Wisconsin Alumni Research Foundation, priority 2019, published 2023).

For orientation: Kd means a measure of binding affinity in units of concentration.

The target of experiment [1] is cTnI (Homo sapiens, UniProt P19429). The following applies: peptide evolved by phage display and in silico evolution; targets cTnI residues 114-144; read-out: binding affinity (Kd); cited from earlier work.
Experiment [2] has as its target T1, human serum albumin (HSA) (human, UniProt P02768 25-609).
T1 construct: mature; also called C-HSA; C-C-HSA
The experiment in a line: nanoparticle pull-down from human serum (10 mg) spiked with cTnI, SDS-PAGE and top-down LC/MS. The procedure:
To this end, cTnI enrichment was performed from human serum spiked-in with the cTnI extracted from the same donor, DCM, and post-mortem heart samples as in FIGS. 4-6. The endogenous cTnI obtained from the different human heart samples were used as the reference cTnI sources and served to mimic cTnI found in the blood.
Comparison of the cTnI enrichment performance of the NP-Pep platform against the agarose-mAb or agarose-Pep platform from human serum spiked with cTnI. The enrichment workflow was performed in a cold room held at 4° C. to minimize possible artifactual protein modifications, such as oxidation. NP-Control (NP-BAPTES),NP-Pep (Fe₃O₄-BAPTES-Peptide), Agarose-Control beads (no coupling), Agarose-Pep beads, and Agarose-mAb beads were incubated with in a protein loading mixture containing human male AB serum (10 mg) and sarcomeric tissue extract obtained from healthy donor heart tissue, diseased heart tissue of DCM, and post-mortem heart tissue containing 306 ng cTnI, 482 ng cTnI, and 465 ng cTnI in the protein extract, respectively. cTnI values were determined by ELISA quantification as previously described. The loading mixture (L), flow through (F), and elution mixture (E) were collected, desalted using a 10 kDa MWCO, and buffer exchanged prior to SDS-PAGE gel analysis or LC-MS analysis as described in the tissue enrichment protocol.

Side chains are listed from the residue outwards. Ends that are not written are not given here. BAPTES = N-(3-(triethoxysilyl)propyl)buta-2,3-dienamide; Fe3O4 nanoparticle = not defined here

T1 sequence (P02768 25-609): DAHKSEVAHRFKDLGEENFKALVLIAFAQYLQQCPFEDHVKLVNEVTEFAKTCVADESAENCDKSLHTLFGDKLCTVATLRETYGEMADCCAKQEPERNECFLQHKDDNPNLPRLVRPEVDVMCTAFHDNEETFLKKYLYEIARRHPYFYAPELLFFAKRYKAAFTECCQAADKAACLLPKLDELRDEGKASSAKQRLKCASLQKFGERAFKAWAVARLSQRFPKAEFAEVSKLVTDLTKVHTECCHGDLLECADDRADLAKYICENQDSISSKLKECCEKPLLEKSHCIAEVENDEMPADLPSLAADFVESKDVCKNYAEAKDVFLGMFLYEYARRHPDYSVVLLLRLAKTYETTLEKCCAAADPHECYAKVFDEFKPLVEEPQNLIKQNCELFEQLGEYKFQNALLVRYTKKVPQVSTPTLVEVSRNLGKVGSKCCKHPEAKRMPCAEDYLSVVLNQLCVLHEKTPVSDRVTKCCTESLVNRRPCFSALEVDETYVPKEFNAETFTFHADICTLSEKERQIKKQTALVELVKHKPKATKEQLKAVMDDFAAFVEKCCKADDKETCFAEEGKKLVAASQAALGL
Sequence of cTnI (P19429 whole entry, the tested form may be a part): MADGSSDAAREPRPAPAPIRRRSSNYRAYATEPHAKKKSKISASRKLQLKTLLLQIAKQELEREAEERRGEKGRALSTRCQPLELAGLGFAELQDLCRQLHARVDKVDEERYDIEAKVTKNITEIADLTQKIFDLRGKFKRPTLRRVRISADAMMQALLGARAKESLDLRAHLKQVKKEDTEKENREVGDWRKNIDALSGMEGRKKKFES

HWQIAYNEHQWQ: in experiment [1], the Kd is 0.27 nM.

B1: Fe3O4-BAPTES-Peptide NPs (NP-Pep): high affinity cTnI-binding peptide HWQIAYNEHQWQC on BAPTES-silanized Fe3O4 nanoparticles (peptide)
peptide: HWQIAYNEHQWQC([BAPTES-Fe3O4 nanoparticle])
modifications: not fully specified; reading uncertain
notes: Synthetic peptide (GenScript) found by phage display and in silico evolution (literature); Many copies on each nanoparticle (about 1.5 peptide/nm^2 in the text); In the assay it stood on the particle, not free; also called NP-Peptide; Fe3O4-Peptide NPs
With B1, the binding result in experiment [2] is “no binding”.
